From paper PMC11570497 (Nature Plants, 2024)
Entries after “also recorded” stand apart in the source; their conditions may differ. Where no end group is shown, it is not given here. The star is where a group is joined. Dabcyl = CN(C)c1ccc(N=Nc2ccc(C(=O)*)cc2)cc1; EDANS = O=S(=O)(O)c1cccc2c(NCCN*)cccc12

Columns and labels:
[1] = system: leaf discs of N. benthamiana; assay type: cell-based, Nicotiana benthamiana; settings: n = 6
[2] = n = 8
[3] = AF of sbt5.2 mutant plants; settings: Nicotiana benthamiana, 21 °C, up to 20 min
P69B–His = test: purified P69B–His; settings: tomato, 21 °C, up to 20 min
SBT5.2a–His = assay type: biochemical, Nicotiana benthamiana; settings: different concentrations of SBT5.2a–His; 100 nM csp22; 45 minutes; read-out ROS burst on six-week-old leaf discs; n = 6
Protocol: Four-week-old N. benthamiana leaves were infiltrated with a 1:1 mixture (final OD600 = 0.5 for each) of A. tumefaciens GV3101 containing the silencing suppressor P19 and pPB097 or pJP008. AF containing SBT5.2a–His or P69B–His was extracted six days after infiltration and purified as previously described[44],[45].
The ROS burst assay was performed as previously described[43] except that L-012 (Wako Chemical) was used instead of luminol and the diameter of leaf discs used here was 4 mm rather than 6 mm. Briefly, after incubation in water overnight, one leaf disc (4 mm in diameter) was added to 100 µl of solution containing 25 ng µl^−1 L-012, 25 ng µl^−1 HRP and specified elicitor treatments. […] After incubation, 25 ng µl^−1 L-012 and 25 ng µl^−1 HRP were added to the AFs. Chemiluminescence was measured immediately with an Infinite M200 plate reader (Tecan) every minute for one hour.

[4] = AF from WT N. benthamiana; settings: Nicotiana benthamiana, room temperature, up to 60 min

## O=S(=O)(F)Cc1ccccc1 [PMSF]
[1]
  block of CspD perception (ROS burst) by subtilase inhibitor: unable to block CspD perception

## DTGTVKWFNTSKGFGFISRDSG [csp22 PSPTO3984]
[2]
  speed of inactivation/degradation in AF of WT plants: more quickly degraded than that of CspD

## Dabcyl-VKWFNNAK-{EDANS}
[3]
  not cleaved: no longer cleaved in AF of sbt5.2 mutants
P69B–His
  not cleaved: not cleaved by purified P69B–His

## LNGKVKWFNNAKGYGFILEDGK [csp22]
SBT5.2a–His
  inactivation of csp22 elicitor activity by purified SBT5.2a–His: dose-dependent inactivation

## MLNGKVKWFNNAKGYGFILEDGKPDEDLFAHYSAIQMDGYKTLKAGQPVRFEIIQGPKGLHAVNIQSSLAKIGEPVKSAHAHTPEHAHA
[4]
  cleaved bond: F-N, first_seen, 15 min; also recorded: L-K, first_seen, 15 min

## QTGTVKWFNDEKGFGFITPQSG [csp22 PSPTO4145]
[2]
  speed of inactivation/degradation in AF of WT plants: slower than that of CspD
